Measurements: ChEMBL document CHEMBL1133388, “4-Aza-2,3-dehydro-4-deoxypodophyllotoxins: simple aza-podophyllotoxin analogues possessing potent cytotoxicity” (Bioorg Med Chem Lett, 2000)
Converted amounts (≈) assume the structure as drawn.

System: P388
Test: Cytotoxicity against P-388 leukemia cells
Format: functional, cell-based
Settings: Mus musculus

Compound	IC50 [µg/mL]
COc1ccc(-c2c3c(nc4cc5c(cc24)OCO5)COC3=O)cc1OC	40 (≈ 109 µM)
COc1ccc(C2c3cc4c(cc3NC3COC(=O)C32)OCO4)cc1OC (centres undefined)	0.048 (≈ 0.13 µM)
COc1cc(-c2c3c(nc4cc(OC)c(OC)c(OC)c24)COC3=O)cc(OC)c1OC	29 (≈ 65.7 µM)
COc1cc(C2C3=C(O)CCC3=Nc3cc4c(cc32)OCO4)cc(OC)c1OC (centres undefined)	0.028 (≈ 0.0708 µM)
COc1cc(-c2c3c(nc4cc5c(cc24)-c2ccccc2C5)COC3=O)cc(OC)c1OC	63 (≈ 143 µM)
COc1cc(-c2c3c(nc4cc5c(cc24)OCCO5)COC3=O)cc(OC)c1OC	80 (≈ 195 µM)
COc1cccc(C2C3=C(O)OCC3=Nc3cc4c(cc32)OCO4)c1 (centres undefined)	0.0053 (≈ 0.0157 µM)
COc1cc(C2C3=C(O)OCC3=Nc3cc4c(cc32)OCCO4)cc(OC)c1OC (centres undefined)	0.0017 (≈ 0.00413 µM)
COc1cc(-c2c3c(nc4cc5c(cc24)OCO5)CCC3=O)cc(OC)c1OC	71 (≈ 180 µM)
COc1ccc(C2C3=C(O)OCC3=Nc3cc4c(cc32)OCO4)cc1 (centres undefined)	0.13 (≈ 0.385 µM)
COc1cc(-c2c3c(nc4cc5c(cc24)OCO5)COC3=O)cc(OC)c1OC	> 100
COc1cc(C2C3=C(O)OCC3=Nc3cc4c(cc32)CCC4)cc(OC)c1OC (centres undefined)	0.0041 (≈ 0.0104 µM)
OC1=C2C(=Nc3cc4c(cc3C2c2ccc3c(c2)OCO3)OCO4)CO1 (centres undefined)	0.03 (≈ 0.0854 µM)
COc1cc2nc3c(c(-c4cc(OC)c(OC)c(OC)c4)c2cc1OC)C(=O)OC3	> 100
COc1ccc(C2C3=C(O)OCC3=Nc3cc(OC)c(OC)cc32)cc1OC (centres undefined)	0.76 (≈ 1.98 µM)
COc1cc2nc3c(c(-c4ccc5c(c4)OCO5)c2cc1OC)C(=O)OC3	2 (≈ 5.47 µM)
COc1cc(-c2c3c(nc4cc5c(cc24)CCC5)COC3=O)cc(OC)c1OC	> 100
COc1cc(C2C3=C(O)OCC3=Nc3cc4c(cc32)-c2ccccc2C4)cc(OC)c1OC (centres undefined)	0.92 (≈ 2.08 µM)
COc1ccc(-c2c3c(nc4cc(OC)c(OC)cc24)COC3=O)cc1OC	39 (≈ 102 µM)
COc1ccc(-c2c3c(nc4cc5c(cc24)OCO5)COC3=O)cc1	> 100
O=C1OCc2nc3cc4c(cc3c(-c3ccccc3)c21)OCO4	60 (≈ 197 µM)
COc1cc2c(cc1OC)C(c1ccc3c(c1)OCO3)C1=C(O)OCC1=N2 (centres undefined)	0.77 (≈ 2.1 µM)
COc1cccc(-c2c3c(nc4cc5c(cc24)OCO5)COC3=O)c1	> 100
O=C1OCc2nc3cc4c(cc3c(-c3ccc5c(c3)OCO5)c21)OCO4	> 100
COc1cc(C2C3=C(COC3=O)Nc3cc(OC)c(OC)c(OC)c32)cc(OC)c1OC (centres undefined)	2.6 (≈ 5.86 µM)
COc1cc(C2C3=C(COC3=O)Nc3cc4c(cc32)OCO4)cc(OC)c1OC (centres undefined)	0.0018 (≈ 0.00453 µM)
COc1cc2c(cc1OC)C(c1cc(OC)c(OC)c(OC)c1)C1=C(O)OCC1=N2 (centres undefined)	4.9 (≈ 11.9 µM)
OC1=C2C(=Nc3cc4c(cc3C2c2ccccc2)OCO4)CO1 (centres undefined)	0.0053 (≈ 0.0172 µM)
COc1cc([C@@H]2c3cc4c(cc3[C@H](O)[C@H]3COC(=O)[C@H]23)OCO4)cc(OC)c1OC [PODOFILOX]	0.0043 (≈ 0.0104 µM)
